The record followed here is US7906507B2, “Oxadiazoanthracene compounds for the treatment of diabetes” (TransTech Pharma, Inc., priority 2008, dated 2011).

The EC50 is the midpoint of the concentration-response curve. A higher EC50 goes with weaker potency.

This assay deals with T1, cloned human GLP-1 receptor (Homo sapiens, UniProt P43220).
T1 construct: expressed in transfected cells; host or cells: CHO or HEK-293 cells
In words: Functional cell-based assay: cAMP functional assay. The note with it: for Emax: 0.5 h, percentage relative to maximal GLP-1-induced cAMP accumulation, na = not active in the assay, read-out: % activation. Put shortly: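 Monolayer cells incubated 30 min at 37 °C with compounds (0.0001–100 μM) in IMDM containing 100 μM RO 20-1724 PDE inhibitor, 0.1% BSA and 2% DMSO. cAMP measured by HTRF.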
In general terms: Cyclic AMP is a second messenger, typically raised through Gs and lowered through Gi signalling.

T1 sequence (P43220 24-463): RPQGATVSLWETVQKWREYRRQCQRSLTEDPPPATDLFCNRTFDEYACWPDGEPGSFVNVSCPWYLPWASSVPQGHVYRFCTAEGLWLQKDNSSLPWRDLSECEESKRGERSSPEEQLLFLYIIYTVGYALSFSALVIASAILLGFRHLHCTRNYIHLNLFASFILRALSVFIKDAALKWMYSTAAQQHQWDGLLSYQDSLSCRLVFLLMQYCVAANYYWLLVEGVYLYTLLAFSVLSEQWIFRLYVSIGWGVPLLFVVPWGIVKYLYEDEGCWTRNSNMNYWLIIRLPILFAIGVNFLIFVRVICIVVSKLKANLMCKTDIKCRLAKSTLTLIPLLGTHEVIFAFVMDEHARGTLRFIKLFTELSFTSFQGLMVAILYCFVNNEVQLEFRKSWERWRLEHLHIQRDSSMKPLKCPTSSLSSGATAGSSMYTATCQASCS

In the case of `CC(C)(C)OC(=O)N1Cc2cc3c(cc2C[C@H]1C(=O)N[C@@H](Cc1ccc(-c2ccc(C#N)cc2)cc1)C(=O)O)NC(=O)C(c1ccc(OCc2ccc(Cl)c(Cl)c2)cc1)O3` (stereo partly drawn) [Example 29, (S)-7-[(S)-1-Carboxy-2-(4′-cyano-biphenyl-4-yl)-ethylcarbamoyl]-3-[4-(3,4-dichloro-benzyloxy)-phenyl]-2-oxo-1,2,3,5,7,8-hexahydro-4-oxa-1,6-diaza-anthracene-6-carboxylic acid tert-butyl ester], the response was half-maximal at 0.29 µM (EC50) and the Emax stood at 17%.
On to `Cc1cc(C(=O)N2Cc3cc4c(cc3C[C@H]2C(=O)N[C@@H](Cc2ccc(-c3ccc(C#N)cc3)cc2)C(=O)O)NC(=O)C(c2ccc(OCc3ccc(Cl)c(Cl)c3)cc2)O4)no1` (stereo partly drawn) [Example 31, (S)-3-(4′-Cyano-biphenyl-4-yl)-2-{[(S)-3-[4-(3,4-dichloro-benzyloxy)-phenyl]-6-(5-methyl-isoxazole-3-carbonyl)-2-oxo-2,3,5,6,7,8-hexahydro-1H-4-oxa-1,6-diaza-anthracene-7-carbonyl]-amino}-propionic acid], for which the concentration giving a half-maximal response (EC50) was 1 µM and the Emax was found to be 13%.
For `N#Cc1ccc(-c2ccc(C[C@H](NC(=O)[C@@H]3Cc4cc5c(cc4CN3S(=O)(=O)c3cccs3)OC(c3ccc(OCc4ccc(Cl)c(Cl)c4)cc3)C(=O)N5)C(=O)O)cc2)cc1` (stereo partly drawn) [Example 32, (S)-3-(4′-Cyano-biphenyl-4-yl)-2-{[(S)-3-[4-(3,4-dichloro-benzyloxy)-phenyl]-2-oxo-6-(thiophene-2-sulfonyl)-2,3,5,6,7,8-hexahydro-1H-4-oxa-1,6-diaza-anthracene-7-carbonyl]-amino}-propionic acid] the same measures were 0.7 µM and 8.3%.
In the case of `CN(C)C(=O)N1Cc2cc3c(cc2C[C@H]1C(=O)N[C@@H](Cc1ccc(-c2ccc(C#N)cc2)cc1)C(=O)O)NC(=O)C(c1ccc(OCc2ccc(Cl)c(Cl)c2)cc1)O3` (stereo partly drawn) [Example 33, (S)-3-(4′-Cyano-biphenyl-4-yl)-2-({(S)-3-[4-(3,4-dichloro-benzylozy)-phenyl]-2-oxo-6-dimethylcarbamoyl-2-oxo-2,3,5,6,7,8-hexahydro-1H-4-oxa-1,6-diaza-anthracene-7-carbonyl}-amino)-propionic acid], the response was half-maximal at 1.3 µM (EC50) and the Emax worked out at 7%.
On to `N#Cc1ccc(-c2ccc(C[C@H](NC(=O)[C@@H]3Cc4cc5c(cc4CN3Cc3ccccc3)OC(c3ccc(OCc4ccc(Cl)c(Cl)c4)cc3)C(=O)N5)C(=O)O)cc2)cc1` (stereo partly drawn) [Example 34, (S)-2-({(S)-6-Benzyl-3-[4-(3,4-dichloro-benzyloxy)-phenyl]-2-oxo-2,3,5,6,7,8-hexahydro-1H-4-oxa-1,6-diaza-anthracene-7-carbonyl}-amino)-3-(4′-cyano-biphenyl-4-yl)-propionic acid], for which the 50% effective concentration (EC50) stood at 0.16 µM and the Emax is 31%.
As for `N#Cc1ccc(-c2ccc(C[C@H](NC(=O)[C@@H]3Cc4cc5c(cc4CN3CCc3ccccc3)OC(c3ccc(OCc4ccc(Cl)c(Cl)c4)cc3)C(=O)N5)C(=O)O)cc2)cc1` (stereo partly drawn) [Example 35, (S)-3-(4′-Cyano-biphenyl-4-yl)-2-({(S)-3-[4-(3,4-dichloro-benzyloxy)-phenyl]-2-oxo-6-phenethyl-2,3,5,6,7,8-hexahydro-1H-4-oxa-1,6-diaza-anthracene-7-carbonyl}-amino)-propionic acid], a half-maximal effect (EC50) was put at 1.2 µM and the Emax was determined as 16%.
On the same counts, the results for `N#Cc1ccc(-c2ccc(C[C@H](NC(=O)[C@@H]3Cc4cc5c(cc4CN3C(=O)c3c(F)cc(F)cc3F)OC(c3ccc(OCc4ccc(Cl)c(Cl)c4)cc3)C(=O)N5)C(=O)O)cc2)cc1` (stereo partly drawn) [Example 36, (S)-3-(4′-Cyano-biphenyl-4-yl)-2-{[(S)-3-[4-(3,4-dichloro-benzyloxy)-phenyl]-2-oxo-6-(2,4,6-trifluoro-benzoyl)-2,3,5,6,7,8-hexahydro-1H-4-oxa-1,6-diaza-anthracene-7-carbonyl]-amino}-propionic acid] are 0.66 µM and 13%.
Regarding `Cc1ccccc1S(=O)(=O)N1Cc2cc3c(cc2C[C@H]1C(=O)N[C@@H](Cc1ccc(-c2ccc(C#N)cc2)cc1)C(=O)O)NC(=O)C(c1ccc(OCc2ccc(Cl)c(Cl)c2)cc1)O3` (stereo partly drawn) [Example 37, (S)-3-(4′-Cyano-biphenyl-4-yl)-2-{[(S)-3-[4-(3,4-dichloro-benzyloxy)-phenyl]-2-oxo-6-(toluene-2-sulfonyl)-2,3,5,6,7,8-hexahydro-1H-4-oxa-1,6-diaza-anthracene-7-carbonyl]-amino}-propionic acid], the EC50 turned out to be 0.49 µM and the Emax was 32%.
For `Cc1ccccc1CN1Cc2cc3c(cc2C[C@H]1C(=O)N[C@@H](Cc1ccc(-c2ccc(C#N)cc2)cc1)C(=O)O)NC(=O)C(c1ccc(OCc2ccc(Cl)c(Cl)c2)cc1)O3` (stereo partly drawn) [Example 38, (S)-3-(4′-Cyano-biphenyl-4-yl)-2-{[(S)-3-[4-(3,4-dichloro-benzyloxy)-phenyl]-6-(2-methyl-benzyl)-2-oxo-2,3,5,6,7,8-hexahydro-1H-4-oxa-1,6-diaza-anthracene-7-carbonyl]-amino}-propionic acid] the same measures were 0.71 µM and 32%.
For `N#Cc1ccc(-c2ccc(C[C@H](NC(=O)[C@@H]3Cc4cc5c(cc4CN3Cc3cccs3)OC(c3ccc(OCc4ccc(Cl)c(Cl)c4)cc3)C(=O)N5)C(=O)O)cc2)cc1` (stereo partly drawn) [Example 40] the same measures were 1.2 µM and 34%.
On the same counts, the results for `N#Cc1ccc(-c2ccc(C[C@H](NC(=O)[C@@H]3Cc4cc5c(cc4CN3Cc3ccccc3F)OC(c3ccc(OCc4ccc(Cl)c(Cl)c4)cc3)C(=O)N5)C(=O)O)cc2)cc1` (stereo partly drawn) [Example 41, (S)-3-(4′-Cyano-biphenyl-4-yl)-2-{[(S)-3-[4-(3,4-dichloro-benzyloxy)-phenyl]-6-(2-fluoro-benzyl)-2-oxo-2,3,5,6,7,8-hexahydro-1H-4-oxa-1,6-diaza-anthracene-7-carbonyl]-amino}-propionic acid] are 0.43 µM and 42%.
As for `N#Cc1ccc(-c2ccc(C[C@H](NC(=O)[C@@H]3Cc4cc5c(cc4CN3Cc3ccccc3Cl)OC(c3ccc(OCc4ccc(Cl)c(Cl)c4)cc3)C(=O)N5)C(=O)O)cc2)cc1` (stereo partly drawn) [Example 42, (S)-2-({(S)-6-(2-Chloro-benzyl)-3-[4-(3,4-dichloro-benzyloxy)-phenyl]-2-oxo-2,3,5,6,7,8-hexahydro-1H-4-oxa-1,6-diaza-anthracene-7-carbonyl}-amino)-3-(4′-cyano-biphenyl-4-yl)-propionic acid], the concentration giving a half-maximal response (EC50) came to 1 µM and the Emax came to 56%.
For `COc1ccccc1CN1Cc2cc3c(cc2C[C@H]1C(=O)N[C@@H](Cc1ccc(-c2ccc(C#N)cc2)cc1)C(=O)O)NC(=O)C(c1ccc(OCc2ccc(Cl)c(Cl)c2)cc1)O3` (stereo partly drawn) [Example 43, (S)-3-(4′-Cyano-biphenyl-4-yl)-2-{[(S)-3-[4-(3,4-dichloro-benzyloxy)-phenyl]-6-(2-methoxy-benzyl)-2-oxo-2,3,5,6,7,8-hexahydro-1H-4-oxa-1,6-diaza-anthracene-7-carbonyl]-amino}-propionic acid], the EC50 came out at 0.5 µM and the Emax worked out at 34%.
As to `Cc1cccc(CN2Cc3cc4c(cc3C[C@H]2C(=O)N[C@@H](Cc2ccc(-c3ccc(C#N)cc3)cc2)C(=O)O)NC(=O)C(c2ccc(OCc3ccc(Cl)c(Cl)c3)cc2)O4)n1` (stereo partly drawn) [Example 44, (S)-3-(4′-Cyano-biphenyl-4-yl)-2-{[(S)-3-[4-(3,4-dichloro-benzyloxy)-phenyl]-6-(6-methyl-pyridin-2-ylmethyl)-2-oxo-2,3,5,6,7,8-hexahydro-1H-4-oxa-1,6-diaza-anthracene-7-carbonyl]-amino}-propionic acid], the EC50 stood at 1 µM and the Emax was found to be 25%.
Take `N#Cc1ccc(-c2ccc(C[C@H](NC(=O)[C@@H]3Cc4cc5c(cc4CN3Cc3cccc(Br)n3)OC(c3ccc(OCc4ccc(Cl)c(Cl)c4)cc3)C(=O)N5)C(=O)O)cc2)cc1` (stereo partly drawn) [Example 45, (S)-2-({(S)-6-(6-Bromo-pyridin-2-ylmethyl)-3-[4-(3,4-dichloro-benzyloxy)-phenyl]-2-oxo-2,3,5,6,7,8-hexahydro-1H-4-oxa-1,6-diaza-anthracene-7-carbonyl}-amino)-3-(4′-cyano-biphenyl-4-yl)-propionic acid]: a half-maximal response (EC50) required 1 µM and the Emax was determined as 18%.
For `CSc1nc(CN2Cc3cc4c(cc3C[C@H]2C(=O)N[C@@H](Cc2ccc(-c3ccc(C#N)cc3)cc2)C(=O)O)NC(=O)C(c2ccc(OCc3ccc(Cl)c(Cl)c3)cc2)O4)ccc1C#N` (stereo partly drawn) [Example 46, (S)-3-(4′-Cyano-biphenyl-4-yl)-2-({(S)-6-(5-cyano-6-methylsulfanyl-pyridin-2-ylmethyl)-3-[4-(3,4-dichloro-benzyloxy)-phenyl]-2-oxo-2,3,5,6,7,8-hexahydro-1H-4-oxa-1,6-diaza-anthracene-7-carbonyl}-amino)-propionic acid] the same measures were 1 µM and 22%.
As for `N#Cc1ccc(-c2ccc(C[C@H](NC(=O)[C@@H]3Cc4cc5c(cc4CN3Cc3ncc[nH]3)OC(c3ccc(OCc4ccc(Cl)c(Cl)c4)cc3)C(=O)N5)C(=O)O)cc2)cc1` (stereo partly drawn) [Example 47, (S)-3-(4′-Cyano-biphenyl-4-yl)-2-{[(S)-3-[4-(3,4-dichloro-benzyloxy)-phenyl]-6-(1H-imidazol-2-ylmethyl)-2-oxo-2,3,5,6,7,8-hexahydro-1H-4-oxa-1,6-diaza-anthracene-7-carbonyl]-amino}-propionic acid], the midpoint of the response, the EC50, lay at 1.2 µM and the Emax came to 29%.
For `Cn1ccnc1CN1Cc2cc3c(cc2C[C@H]1C(=O)N[C@@H](Cc1ccc(-c2ccc(C#N)cc2)cc1)C(=O)O)NC(=O)C(c1ccc(OCc2ccc(Cl)c(Cl)c2)cc1)O3` (stereo partly drawn) [Example 48, (S)-3-(4′-Cyano-biphenyl-4-yl)-2-{[(S)-3-[4-(3,4-dichloro-benzyloxy)-phenyl]-6-(1-methyl-1H-imidazol-2-ylmethyl)-2-oxo-2,3,5,6,7,8-hexahydro-1H-4-oxa-1,6-diaza-anthracene-7-carbonyl]-amino}-propionic acid] the same measures were 0.895 µM and 64%.
